{"source": "patent US20160257957A1", "about": "“METHODS AND COMPOSITIONS FOR TREATMENT OF ANGELMAN SYNDROME AND AUTISM SPECTRUM DISORDERS” (PRESIDENT AND FELLOWS OF HARVARD COLLEGE, priority 2010, published 2016)", "key": {"Arc": {"test_system": "Arc", "settings": "literature; cited from earlier work"}, "[1]": {"test_system": "Ube3A-mediated degradation of Arc", "experiment": "Ube3A-mediated degradation of Arc in transfected HEK293T cells (Western blot)", "format": "cell-based", "settings": "HEK293T cells transfected with Arc and Ube3A; MG132 10 μM", "procedure": "(FIG. 9A) Western blot analysis of protein lysates made from brains of wild type and Ube3A knockout mice two hours following kainate acid injection. Immunoprecipitations were performed with an anti-Ube3A antibody and blotted with an anti-Arc antibody to reveal co-immunoprecipitated Arc. Images presented are representative of experiments performed on four independent sets of wildtype and Ube3A knockout mice. (FIG. 9B) Protein lysates were prepared from HEK293T cells transfected with Myc-Arc and HA-tagged ubiquitin and the indicated constructs and then treated with either vehicle control or the proteasome inhibitor MG132 ([…]). Arc was then immunoprecipitated using the anti-Myc antibody 9E10, and Western blot analysis was performed using an anti-Arc antibody to reveal both non-ubiquitinated and ubiquitinated forms of Arc. (FIG. 9C) Mass spectrometric peaks reveal that Ube3A catalyzes the ubiquitination of Arc on lysine 269. […] SEQ ID NO:5 is KGGEFLQYSEGTLSR(SEQ ID NO: 5) shown. Note the presence of two glycine residues covalently linked to the first lysine of this peptide which is indicative of ubiquitin being attached to that specific residue. […] Additional data not pictured here reveal the presence of ubiquitinated lysine 268 as well. […] SEQ ID NO: 6 is LIFAGKGGQLEDGR (SEQ ID NO: 6) shown in upper panel of FIG. 9D. […]"}, "[2]": {"test_system": "muscarinic acetylcholine receptors (mAChR)", "settings": "literature; cited from earlier work"}, "Ube3A": {"test_system": "Ube3A", "experiment": "Kainate-induced seizures: Ube3A mRNA and protein in mouse hippocampus", "format": "in vivo, mice", "settings": "kainate-induced seizures vs control", "excerpt": "FIGS. 8A-8G show regulation of Ube3A mRNA and protein by neuronal activity. (FIG. 8A) Real-time PCR analysis of Ube3A mRNA extracted from hippocampal neurons at E18+10 DIV treated for six hours with the indicated agent. Data are means+/−SEM from three independent experiments. * indicates statistical significance in pairwise comparison to control: P<0.01 T-test. (FIG. 8B) Quantitative Western blot analysis of Ube3A protein. Protein lysates were collected from hippocampal neurons at E18+8 DIV following treatment with the indicated agent for seven hours. This experiment was performed three times independently and the data were normalized to the control and are presented as means+/−SEM. * indicates P<0.01, # indicates P<0.05 in analysis of statistical significance in pairwise comparison to control by T-test. (FIG. 8C) Quantitative Western blot analysis of Ube3A protein. […] (FIG. 8E) Quantitative Western blot analysis of Ube3A protein from mice 2.5 hours after injection with saline (ctl) or kainic acid (seized) to induce seizures. […] (FIG. 8F) Quantitative Western blot analysis of Ube3A protein from mice housed in standard laboratory cages (control) or placed in cages with novel objects (enriched) for 2.5 hours. […]\nQuantitative Real-Time PCR was carried out following standard procedures. […]"}, "mGluR5": {"molecular_target": "T1, mGluR5 (Mus musculus, UniProt Q3UVX5)", "T1 construct": "host or cells: mouse model of Fragile X syndrome (in vivo)", "T1 sequence (Q3UVX5 19-1203)": "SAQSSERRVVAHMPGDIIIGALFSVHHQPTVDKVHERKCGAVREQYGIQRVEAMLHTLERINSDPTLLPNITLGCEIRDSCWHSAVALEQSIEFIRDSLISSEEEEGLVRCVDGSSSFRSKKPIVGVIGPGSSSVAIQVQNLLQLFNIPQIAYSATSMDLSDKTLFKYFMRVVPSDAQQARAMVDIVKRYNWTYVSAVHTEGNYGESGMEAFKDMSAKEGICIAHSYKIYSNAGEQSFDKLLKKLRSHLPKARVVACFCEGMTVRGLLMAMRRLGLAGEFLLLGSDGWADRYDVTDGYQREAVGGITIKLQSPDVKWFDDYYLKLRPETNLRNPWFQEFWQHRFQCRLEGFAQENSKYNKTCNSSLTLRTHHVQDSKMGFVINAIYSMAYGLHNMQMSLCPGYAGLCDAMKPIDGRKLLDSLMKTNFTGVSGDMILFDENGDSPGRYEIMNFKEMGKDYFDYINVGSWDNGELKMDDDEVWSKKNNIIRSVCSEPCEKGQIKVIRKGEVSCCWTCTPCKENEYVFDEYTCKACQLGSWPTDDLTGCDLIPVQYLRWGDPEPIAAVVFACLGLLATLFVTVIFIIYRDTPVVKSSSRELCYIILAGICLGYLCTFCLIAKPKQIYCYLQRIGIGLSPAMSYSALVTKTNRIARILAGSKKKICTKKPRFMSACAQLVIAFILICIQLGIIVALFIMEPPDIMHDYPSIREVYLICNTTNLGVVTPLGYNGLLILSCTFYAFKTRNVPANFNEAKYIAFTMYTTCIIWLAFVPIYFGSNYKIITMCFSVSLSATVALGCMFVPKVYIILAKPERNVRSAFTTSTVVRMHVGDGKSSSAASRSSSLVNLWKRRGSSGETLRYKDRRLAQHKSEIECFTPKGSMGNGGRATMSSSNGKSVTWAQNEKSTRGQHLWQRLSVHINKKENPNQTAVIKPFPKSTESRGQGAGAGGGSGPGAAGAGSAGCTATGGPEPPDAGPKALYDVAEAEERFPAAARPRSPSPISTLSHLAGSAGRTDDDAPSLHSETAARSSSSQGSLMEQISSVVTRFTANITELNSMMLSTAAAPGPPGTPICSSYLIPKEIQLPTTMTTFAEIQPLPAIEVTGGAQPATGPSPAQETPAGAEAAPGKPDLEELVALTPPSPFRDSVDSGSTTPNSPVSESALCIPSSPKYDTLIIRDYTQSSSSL", "settings": "mouse model of FXS, injection; cited from earlier work"}}, "note": "Where a SMILES comes first, the peptide text is derived from it. The star is where a group is joined. Cbz = O=C(OCc1ccccc1)*", "data": [{"molecule": "C[C@@H](CO)CCC[C@@H](C)[C@H]1CC[C@H]2[C@@H]3CC=C4C[C@@H](O)CC[C@]4(C)[C@H]3CC[C@]12C", "note": "[27-hydroxycholesterol]", "values": [{"measurement": "ARC expression", "setting": "Arc", "value": "specifically decreased"}]}, {"molecule": "insulin: insulin", "values": [{"measurement": "ARC expression", "setting": "Arc", "value": "increased"}]}, {"molecule": "CC(C)C[C@@H](C=O)NC(=O)[C@H](CC(C)C)NC(=O)[C@H](CC(C)C)NC(=O)OCc1ccccc1", "note": "[MG132] (Cbz-Leu-Leu-Leu-aldehyde)", "values": [{"measurement": "Ube3A-mediated degradation of Arc", "setting": "[1]", "value": "blocked Ube3A-mediated degradation of Arc"}]}, {"molecule": "CN1[C@@H]2CC[C@H]1C[C@@H](OC(=O)C(CO)c1ccccc1)C2", "note": "(stereo partly drawn) [atropine]", "values": [{"measurement": "mAChR-induced expression of ARC", "setting": "[2]", "value": "can be inhibited"}]}, {"molecule": "C=C(C)[C@H]1CN[C@H](C(=O)O)[C@H]1CC(=O)O", "note": "[kainate, kainic acid]", "values": [{"measurement": "Ube3A mRNA level", "setting": "Ube3A; mouse hippocampus", "value": "increased"}, {"measurement": "Ube3A protein level", "setting": "Ube3A; mouse", "value": "increased"}]}, {"molecule": "O=S(=O)(NCCNC/C=C/c1ccc(Br)cc1)c1cccc2cnccc12", "note": "[H89]", "values": [{"measurement": "ARC expression", "setting": "Arc", "value": "induction of ARC expression"}]}, {"molecule": "Cc1cccc(C#Cc2ccccc2)n1", "note": "[MPEP, 2-methyl-6-(phenylethynyl)-pyridine]", "values": [{"measurement": "surface expression of AMPARs", "setting": "mGluR5", "value": "restored surface expression of AMPARs"}, {"measurement": "symptoms associated with FXS", "setting": "mGluR5", "value": "prevented the symptoms associated with FXS"}]}]}
